# Experimental data from paper PMC12892976, “Alkylation-based optimization of antifungal FPPS inhibitors yields a potent, broad-spectrum lipophilic zoledronate derivative” (mBio, 2025).
# Tests used:
# Acinetobacter baumanii = assay: antibacterial MIC; format: cell-based; details: Acinetobacter baumannii
# Text: (§1) […]; Table S3). […]. […] […].
# Bacillus subtilis = assay: antibacterial MIC; format: cell-based
# Text: as §1
# Enterobacter aerogenes = assay: antibacterial MIC; format: cell-based; details: Klebsiella aerogenes
# Text: as §1
# Enterococcus faecalis = assay: antibacterial MIC; format: cell-based
# Text: as §1
# Escherichia coli = assay: antibacterial MIC; format: cell-based
# Text: as §1
# Klebsiella pneumoniae = assay: antibacterial MIC; format: cell-based
# Text: as §1
# Proteus vulgaris = assay: antibacterial MIC; format: cell-based
# Text: as §1
# Pseudomonas aeruginosa = assay: antibacterial MIC; format: cell-based
# Text: as §1
# Salmonella Typhimurium = assay: antibacterial MIC; format: cell-based; details: Salmonella enterica
# Text: as §1
# Staphylococcus aureus = assay: antibacterial MIC; format: cell-based
# Text: as §1
# Streptococcus pneumoniae = assay: antibacterial MIC; format: cell-based
# Text: as §1
# Streptococcus pyogenes = assay: antibacterial MIC; format: cell-based
# Text: as §1
# C. albicans [1] = assay: ergosterol quantitation; format: cell-based, Candida albicans; details: 1× MIC vs no-drug control
# Experimental: (§2) Treated cultures were incubated at 30°C with shaking for 18 h for C. albicans and A. fumigatus and for 32 h for C. neoformans. Cell membrane ergosterol was then extracted and quantified as described previously ([48]).
# C. neoformans [2] = assay: ergosterol quantitation; format: cell-based, Cryptococcus neoformans; details: 1× MIC vs no-drug control
# Experimental: as §2
# Candida albicans = assay: time-kill assay; format: cell-based; details: 2× MIC, C. albicans
# Experimental: (§3) Cultures were incubated at 37°C with shaking at 200 rpm. Aliquots were withdrawn at 12, 24, 36, and 48 h post-treatment for both species, and additionally at 60 and 72 h for C. neoformans, then back-plated onto SDA. Viable cell counts were obtained after 48 h.
# Cryptococcus neoformans = assay: time-kill assay; format: cell-based; details: 1× MIC, C. neoformans
# Experimental: as §3
# C. neoformans [3] = assay: membrane depolarization, diS-C3(3); format: cell-based, Cryptococcus neoformans; details: diS-C3(3) emission maximum
# Experimental: (§4) Membrane depolarization was determined using potential-sensitive fluorophore diS-C3(3) (Sigma), as described previously ([51]). Yeast cells and A. fumigatus conidia were treated as described above, then washed with citrate phosphate buffer and labeled with 20 nM diS-C3(3) at a final concentration of 10^6 cells/mL for yeasts and 10^4 conidia/mL for Aspergillus. Cells were transferred to a microplate (Invitrogen), then emission spectra between 560 and 585 nm (λexcitation = 531 nm) were obtained every 12 min for 1 h using a CLARIOstar plate reader (BMG Labtech). The emission λmax was determined at each timepoint.
# A. fumigatus [4] = assay: membrane depolarization, diS-C3(3); format: cell-based, Aspergillus fumigatus; details: diS-C3(3) emission maximum
# Experimental: as §4
# C. albicans [5] = assay: membrane permeabilization, nucleic acid leakage; format: cell-based, Candida albicans
# Experimental: (§5) Membrane permeabilization was determined by measuring the leakage of nucleic acid into the supernatant ([19]). […] Suspensions were incubated at 30°C with shaking at 200 rpm for 6 h, then passed through a 0.45 µm syringe filter. The A260 of each filtrate was measured with a DS-11 FX +benchtop spectrophotometer (DeNovix).
# C. neoformans [6] = assay: membrane permeabilization, nucleic acid leakage; format: cell-based, Cryptococcus neoformans
# Experimental: as §5
# A. fumigatus [7] = assay: membrane permeabilization, nucleic acid leakage; format: cell-based, Aspergillus fumigatus
# Experimental: as §5
# C. albicans [8] = assay: ROS accumulation, DCFDA; format: cell-based, Candida albicans
# Experimental: (§6) All cultures were incubated for 6 h and then labeled with 20 µM DCFDA in PBS for 30 min. Labeled cultures were transferred into a microplate, and fluorescence intensity was measured using a CLARIOstar plate reader (BMG Labtech).
# C. neoformans [9] = assay: ROS accumulation, DCFDA; format: cell-based, Cryptococcus neoformans
# Experimental: as §6
# A. fumigatus [10] = assay: ROS accumulation, DCFDA; format: cell-based, Aspergillus fumigatus
# Experimental: as §6
# C. albicans [11] = assay: lipid peroxidation, TBARS assay (MDA); format: cell-based, Candida albicans
# Experimental: (§7) Cultures were incubated overnight, pelleted, and resuspended in 1 mL ice-cold PBS. Malondialdehyde (MDA) was extracted and quantified using a TBARS assay kit (Cayman Chemical #700870) according to the manufacturer’s instructions. MDA was normalized to total protein content in cell lysates.
# C. neoformans [12] = assay: lipid peroxidation, TBARS assay (MDA); format: cell-based, Cryptococcus neoformans
# Experimental: as §7
# A. fumigatus [13] = assay: lipid peroxidation, TBARS assay (MDA); format: cell-based, Aspergillus fumigatus
# Experimental: as §7
# A. fumigatus infection = assay: Galleria mellonella survival assay; format: in vivo
# Experimental: (§8) Galleria mellonella larvae were reared and prepared as described previously ([53]). Larvae (n = 12 per treatment) were each inoculated with 10^5 spores or cells of A. fumigatus, C. albicans, or C. neoformans in 10 µL of PBS. […] Treated larvae were incubated at 37°C, and mortality was evaluated every day for 10 days.
# C. albicans infection = assay: Galleria mellonella survival assay; format: in vivo
# Experimental: as §8
# C. neoformans infection = assay: Galleria mellonella survival assay; format: in vivo
# Experimental: as §8
# [14] = system: 12 pathogenic bacterial species; assay: antibacterial MIC, summary of 12 pathogenic bacterial species; format: cell-based
# Text: as §1
# TNF-α = system: TNF-α; parameters: method as in PMID 23610597; details: cited from earlier work
# fungal biofilms = assay: biofilm XTT assay, summary across all biofilms tested; details: alone
smiles,measurement,setting,value
"O=P(O)(O)C(O)(Cn1ccnc1)P(=O)(O)O [ZOL, zoledronate]",MIC,Acinetobacter baumanii,> 256 µg/mL
same,MIC,Bacillus subtilis,256 µg/mL
same,MIC,Enterobacter aerogenes,> 256 µg/mL
same,MIC,Enterococcus faecalis,256 µg/mL
same,MIC,Escherichia coli,256 µg/mL
same,MIC,Klebsiella pneumoniae,256 µg/mL
same,MIC,Proteus vulgaris,128 µg/mL
same,MIC,Pseudomonas aeruginosa,> 256 µg/mL
same,MIC,Salmonella Typhimurium,256 µg/mL
same,MIC,Staphylococcus aureus,256 µg/mL
same,MIC,Streptococcus pneumoniae,> 256 µg/mL
same,MIC,Streptococcus pyogenes,256 µg/mL
"CCCCCCCCCCn1cc[n+](CC(O)(P(=O)(O)O)P(=O)(O)O)c1 [10-ZOL, Decyl-zoledronate]",MIC,Acinetobacter baumanii,> 16 µg/mL
same,MIC,Bacillus subtilis,> 16 µg/mL
same,MIC,Enterobacter aerogenes,16 µg/mL
same,MIC,Enterococcus faecalis,16 µg/mL
same,MIC,Escherichia coli,16 µg/mL
same,MIC,Klebsiella pneumoniae,16 µg/mL
same,MIC,Proteus vulgaris,> 16 µg/mL
same,MIC,Pseudomonas aeruginosa,> 16 µg/mL
same,MIC,Salmonella Typhimurium,> 16 µg/mL
same,MIC,Staphylococcus aureus,16 µg/mL
same,MIC,Streptococcus pneumoniae,16 µg/mL
same,MIC,Streptococcus pyogenes,16 µg/mL
same,membrane ergosterol content,C. albicans [1],significant depletion of membrane ergosterol
same,membrane ergosterol content,C. neoformans [2],significant depletion of membrane ergosterol
same,time at which viable cell count is significantly decreased from starting inoculum,Candida albicans,12 h
same,time at which viable cell count is significantly decreased from starting inoculum,Cryptococcus neoformans,24 h
same,membrane depolarization,C. neoformans [3],dose-dependent depolarization effect
same,membrane depolarization,A. fumigatus [4],dose-dependent depolarization effect
same,concentration giving significant increase in leaked nucleic acid,C. albicans [5],≥ 1 × MIC
same,concentration giving significant increase in leaked nucleic acid,C. neoformans [6],≥ 1 × MIC
same,concentration giving significant increase in leaked nucleic acid,A. fumigatus [7],≥ 1 × MIC
same,concentration at which ROS (DCFDA fluorescence) increase became significant,C. albicans [8],2 × MIC
same,concentration at which ROS (DCFDA fluorescence) increase became significant,C. neoformans [9],2 × MIC
same,concentration at which ROS (DCFDA fluorescence) increase became significant,A. fumigatus [10],2 × MIC
same,concentration at which lipid peroxidation increase became significant,C. albicans [11],1 × MIC
same,concentration at which lipid peroxidation increase became significant,C. neoformans [12],1 × MIC
same,concentration at which lipid peroxidation increase became significant,A. fumigatus [13],2 × MIC
same,survival compared with […] AMB,A. fumigatus infection; 64 µg/mL,no significant difference in survival
same,larval mortality vs no-drug control,A. fumigatus infection; single infusion of 64 µg/mL,significantly reduced mortality
same,survival compared with […] AMB,C. albicans infection; 64 µg/mL,outperformed AMB
same,larval mortality vs no-drug control,C. albicans infection; single infusion of 64 µg/mL,significantly reduced mortality
same,survival compared with […] AMB,C. neoformans infection; 64 µg/mL,outperformed AMB
same,larval mortality vs no-drug control,C. neoformans infection; single infusion of 64 µg/mL,significantly reduced mortality
same,antibacterial activity,[14],limited or no antibacterial activity
same,TNF-α release,TNF-α,stimulate the release of TNF-α
same,SIC80 range,fungal biofilms,8 to 128 µg/mL
